One data set concerns H1975 cell line. In words: Sulforhodamine B colorimetric (SRB) assay, H1975. To be noted: Homo sapiens, NCI-H1975, 72 h, H1975 cell line, SRB assay, 72 hours.
Data set [1] relates to Breast Cancer Cells (MCF). Nature of the data set: Cell viability by Cell-TiterGlo. It counts as cell-based. To be noted: Homo sapiens, 48 h, two days, read-out: % of the activities in the presence of ~10 μM compound, Breast Cancer Cells (MCF). The protocol:
(§1) Compound 1 and its analogues shown in Table 6 below were tested for their activities on cancer cells and bacterial cells using assays described herein. H1975, MDA-MB231, and MCF7 cells were incubated in the presence of the compounds in cell growth medium containing 10% fetal bovine serum for two days in a mammalian cell culture incubatoe. Cell viability were monitored by using Cell-TiterGlo. Staphylococcus aureus and Escherichia coli were incubated in the presence of the compounds in Muller-Hinton broth for 16-24 hours in a 37° C. incubator. Bacterial growth was monitored by using Alamar Blue (Invitrogen).

For data set [2], the system named is Breast Cancer Cells (MDA-MB231). In words: Cell viability by Cell-TiterGlo. Format: cell-based. The settings on record: Homo sapiens, MDA-MB-231, 48 h, two days, read-out: % of the activities in the presence of ~10 μM compound, Breast Cancer Cells (MDA-MB231). The protocol:
as §1

Data set [3] concerns Lung Cancer Cells (H1975). Nature of the data set: Cell viability by Cell-TiterGlo. To be noted: Homo sapiens, NCI-H1975, 48 h, two days, read-out: % of the activities in the presence of ~10 μM compound, Lung Cancer Cells (H1975). Format: cell-based. The method, then:
as §1

For a further data set, the system named is Escherichia coli. Nature of the data set: Bacterial growth by Alamar Blue in Muller-Hinton broth. Format: cell-based. The settings on record: 16-24 hours, read-out: % of the activities in the presence of ~10 μM compound, Escherichia coli. The protocol: as §1
In the next data set the test system is Staphylococcus aureus. Described as above. The settings on record: ~10 μM, 16-24 hours, Alamar Blue, read-out: % of the activities in the presence of ~10 μM compound, Staphylococcus aureus. It counts as cell-based. The method, then:
as §1
Background: Alamar Blue is a resazurin reagent that responds to reducing activity.

For the compound `Cc1oc2c(c1C(=O)NCCn1ccnc1)C(=O)c1ccccc1C2=O` [Compound 5, N-(2-(1H-imidazol-1-yl)ethyl)-2-methyl-4,9-dioxo-4,9-dihydronaphtho [2,3-b]furan-3-carboxamide], in the data set with H1975 cell line, the concentration for half-maximal inhibition (IC50) (commonly the concentration needed to halve the response being measured) came out at 280 nM.

As for `O=C1c2ccccc2C(=O)c2c1oc(-c1ccccc1)c2C(=O)NCCCn1ccnc1` [Compound 9, N-(3-(1H-imidazol-1-yl)propyl)-4,9-dioxo-2-phenyl-4,9-dihydronaphtho[2,3-b]furan-3-carboxamide], the IC50 in the data set with H1975 cell line amounted to 826 nM.

In the data set with H1975 cell line, `CC(C)c1oc2c(c1C(=O)NCCCn1ccnc1)C(=O)c1ccccc1C2=O` [Compound 10, N-(3-(1H-imidazol-1-yl)propyl)-2-isopropyl-4,9-dioxo-4,9-dihydronaphtho[2,3-b]furan-3-carboxamide] registered an IC50 of 260 nM.

In the data set on H1975 cell line, `CCc1oc2c(c1C(=O)NCCCn1ccnc1)C(=O)c1ccccc1C2=O` [Compound 11, N-(3-(1H-imidazol-1-yl)propyl)-2-ethyl-4,9-dioxo-4,9-dihydronaphtho[2,3-b]furan-3-carboxamide] showed an IC50 of 288 nM.

`Cc1oc2c(c1C(=O)NCCCn1cccc1)C(=O)c1ccccc1C2=O` [Compound 12, N-(3-(1H-pyrrol-1-yl)propyl)-2-methyl-4,9-dioxo-4,9-dihydronaphtho[2,3-b]furan-3-carboxamide]: the melting point (usually the temperature, or range, at which the solid turns liquid) was in the range of 143.5 to 150.7 °C. The same compound showed an IC50 in the data set on H1975 cell line of 918 nM.

`Cc1oc2c(c1C(=O)NCCCCn1ccnc1)C(=O)c1ccccc1C2=O` [Compound 13, N-(4-(1H-imidazol-1-yl)butyl)-2-methyl-4,9-dioxo-4,9-dihydronaphtho[2,3-b]furan-3-carboxamide] yielded a melting point of 158.6 to 164.1 °C. Besides, the 50% inhibitory concentration (IC50) in the data set on H1975 cell line came out at 250 nM.

For `Cc1oc2c(c1C(=O)NCCCCc1ccccc1)C(=O)c1ccccc1C2=O` [Compound 17, 2-Methyl-4,9-dioxo-N-(4-phenylbutyl)-4,9-dihydronaphtho[2,3-b]furan-3-carboxamide], the melting point was 151.4 to 152.7 °C. In the data set with H1975 cell line, the half-inhibitory concentration (IC50) is above 10000 nM.

In the data set with H1975 cell line, `Cc1oc2c(c1C(=O)NCCCN1CCCC1)C(=O)c1ccccc1C2=O` [Compound 18, 2-Methyl-4,9-dioxo-N-(3-(pyrrolidin-1-yl)propyl)-4,9-dihydronaphtho[2,3-b]furan-3-carboxamide] gave an IC50 of 24 nM.

`Cc1oc2c(c1C(=O)NCCCN1CCOCC1)C(=O)c1ccccc1C2=O` [Compound 20, 2-Methyl-N-(3-morpholinopropyl)-4,9-dioxo-4,9-dihydronaphtho[2,3-b]furan-3-carboxamide] yielded a half-maximal inhibitory concentration (IC50) with H1975 cell line of 80 nM.

For `Cc1[nH]c2c(c1C(=O)NCCCn1ccnc1)C(=O)c1ccccc1C2=O` [Compound 45, N-(3-(1H-imidazol-1-yl)propyl)-2-methyl-4,9-dioxo-4,9-dihydro-1H-benzo[f]indole-3-carboxamide], the IC50 with H1975 cell line was found to be 8730 nM.

With `O=C(NCCN1CCOCC1)c1coc2c1C(=O)c1ccccc1C2=O` [Compound 00053891400], the viability at 10 µM in data set [1] was determined as 6.1%; in data set [2], 12.2%; in data set [3], 4%. For the same compound, the activity at 10 µM in the data set with Escherichia coli and with Staphylococcus aureus was above 100% in each case.

Take `Cc1oc2c(c1C(=O)N1CCC(C)CC1)C(=O)c1ccccc1C2=O` [Compound 00054506228]: the viability at 10 µM in data set [1] was determined as 13.6%; in data set [2], 54.4%; in data set [3] it was 4.6%. In addition, the activity at 10 µM is above 100% in the data set with Escherichia coli and 65.4% with Staphylococcus aureus.

`COCCNC(=O)c1c(C)oc2c1C(=O)c1ccccc1C2=O` [Compound 00054811255]: the figures for the viability at 10 µM in data set [1], in data set [2] and in data set [3] were 6.5%, 13.4% and 4.2%, respectively. The activity at 10 µM with Escherichia coli and in the data set with Staphylococcus aureus was above 100% in each case.

Consider `Cc1oc2c(c1C(=O)NC(C)(C)C)C(=O)c1ccccc1C2=O` [Compound 00055422098], for which the viability at 10 µM in data set [1] was 35%; in data set [2], 69.8%; in data set [3], 3.7%. Moreover, the activity at 10 µM in the data set with Escherichia coli and in the data set on Staphylococcus aureus was above 100% throughout.

Take `CCCCNC(=O)c1c(C)oc2c1C(=O)c1ccccc1C2=O` [Compound 00055422996]: the viability at 10 µM turned out to be 6.9% in data set [1], 20.9% in data set [2] and 4.3% in data set [3]. For the same compound, the activity at 10 µM in the data set with Escherichia coli and in the data set with Staphylococcus aureus was above 100% each time.

`Cc1oc2c(c1C(=O)NCCC(C)C)C(=O)c1ccccc1C2=O` [Compound 00055727872]: the viability at 10 µM in data set [1] was 44.3%; in data set [2], 72%; in data set [3], 4.2%. Moreover, the activity at 10 µM with Escherichia coli and with Staphylococcus aureus was above 100% each time.

Take `Cc1oc2c(c1C(=O)N1CCOCC1)C(=O)c1ccccc1C2=O` [Compound 00056034607]: the viability at 10 µM in data set [1] was 12.9%; in data set [2] it was 61.2%; in data set [3], 4.4%. Besides, the activity at 10 µM with Escherichia coli was above 100%; with Staphylococcus aureus it was 75.8%.

The values above are taken from US11919886B2, “4,9-dioxo-4,9-dihydronaphtho[2,3-B]furan-3-carboxamide derivatives and uses thereof for treating proliferative diseases and infectious diseases” (Academia Sinica, priority 2016, dated 2024).
